Test results as given in US5654289A, “Disaccharide derivative” (Suntory Limited, priority 1993, dated 1997).
Like-named read-outs stand apart in the source and are kept apart here.

Key:
[1] = tested on: male C57BL mouse; experiment: Galactosamine-loaded lethal toxicity test; assay type: in vivo; conditions: 16 mg D-galactosamine/HCl i.p., compound i.v., 24 hours
Experimental: The galactosamine-loaded lethal toxicity was determined by using the following experimental system.
16 mg of D-galactosamine/HCl was intraperitoneally administered to a male C57BL mouse aged 8 weeks. Immediately thereafter, the compound of the present invention was intravenously injected into the animal and the conditions were observed after 24 hours.

[2] = tested on: BALB/c mouse spleen cells; experiment: Mitogenic activity (3H-thymidine incorporation into mouse spleen cells)
[3] = tested on: BALB/c mouse spleen cells; experiment: Polyclonal B cell activation activity (ELISPOT); conditions: 72 hours
[4] = tested on: vesicular stomatitis virus (VSV); assay type: cell-based, vesicular stomatitis virus; mouse L929 cells
[5] = tested on: anti-BSA IgG antibody; experiment: Adjuvant activity (serum anti-BSA IgG by ELISA); assay type: in vivo, mouse (BALB/c); conditions: 100 μg compound with 100 μg BSA in FIA, s.c., days 0 and 28; day 5 after booster; BSA alone = 1.00
Experimental: In this test, male BALB/c mice (each group having 6 animals) were used. On the days 0 and 28, 100 μg of bovine serum albumin (BSA) containing 100 μg of the compound of the present invention on the comparative compound or no such a compound was subcutaneously injected into each animal in the form of a water-in-oil type emulsion in Freund's incomplete adjuvant (FIA). On the day 5 following the booster, the level of anti-BSA IgG antibody formed in the serum was determined by the ELISA method. […] [formula]

[6] = tested on: rabbits; experiment: Pyrogenicity test; conditions: i.v., rabbit, feverish = rise of 0.6° C. or more
Experimental: In this test, rabbits were used and 5 ml/kg of the test compound diluted to a definite concentration with physiological saline was intravenously injected into each animal. Then the rectal temperature was measured. Rabbits showing an increase in the bodily temperature by 0.6° C. or more were referred to as feverish.

[7] = tested on: IL-1β; experiment: Cytokine inducing activity: IL-1β (ELISA), human peripheral blood monocytes; assay type: cell-based
Experimental: (§1) The cytokine inducing activity was tested by using an ELISA system for assaying TNF-α (manufactured by Amersham Japan) and another ELISA system for assaying IL-1β (manufactured by Otsuka Pharmaceutical Co., Ltd.). […] Then the cytokines in the culture supernatant were assayed by the ELISA method.

[8] = tested on: TNF-α; experiment: Cytokine inducing activity: TNF-α (ELISA), human peripheral blood monocytes; assay type: cell-based; conditions: 24 hours
Experimental: as §1

[9] = tested on: IL-1 receptor antagonist (IL-1ra); experiment: IL-1 receptor antagonist (IL-1ra) production (ELISA), human peripheral blood monocytes; assay type: cell-based
[10] = tested on: methylcholanthrene-induced fibrosarcoma (Meth A); experiment: Antitumor activity (macrophage cytostatic activity on Meth A fibrosarcoma); assay type: cell-based, mouse (BALB/c)
Experimental: This test was effected by examining a cytostatic activity on methylcholanthrene-induced fibrosarcoma (Meth A). Namely, adherent cells (macrophages) were collected from spleen cells of a BALB/c mouse. […] Then the ^3 H-thymidine-uptake suppression ratio was calculated by substituting the obtained values in accordance with the following formula and the result was expressed as the cytostatic activity on macrophages.
Cytostatic Activity (%)={1-(Radioactivity of macrophages and target cells-Radioactivity of macrophages alone)(cpm)/(Radioactivity of target cells along)}×100

[11] = tested on: male rabbit; experiment: Local Shwartzman reaction; assay type: in vivo; conditions: 100 μg/site intradermal, elicitation with Salmonella minnesota LPS i.v.
Experimental: This test was carried out in the following manner. The test compound, which had been diluted to a definite concentration with 0.2 ml of physiological saline, was intradermally injected into a male rabbit. After 24 hours, 100 μg/ml/kg of Salmonella minnesota 9700 LPS-W (manufactured by Difco) was intravenously injected into the animal for elicitation. After 4 hours, intradermal hemorrhage was observed.

[12] = tested on: Moloney virus-induced lymphoma YAC-1; experiment: NK (natural killer) activity of spleen cells from treated mice against YAC-1 (51Cr release); assay type: in vivo, mouse (BALB/c)
Experimental: This test was carried out in the following manner. […] On the day 14, the spleen cells of the animal were collected. To the prepared spleen cells (1×10^6 cells/0.1 ml), target cells (Moloney virus-inducedlymphoma YAC-1; 2×10^4 cells/ml) labeled with ^51 Cr were added followed by the incubation for 4 hours. […] After the completion of the incubation, 0.1 ml of the culture supernatant was collected and the amount (radiation dose) of ^51 Cr liberated due to the damage in the target cells was measured. Then the NK activity (%) was calculated by substituting each value in accordance with the following formula. NK Activity (%)={(Radioactivity of test group-Radioactivity of minimum free control group)(cpm)/(Radioactivity maximum free control group-Radioactivity of minimum free control group)(cpm)}

[13] = tested on: Tachypleus tridentatus lysate; conditions: Pregel reagent, gel formation
[14] = Mus musculus, read-out: Mitogen activity, Stimulation Index

CCCCCCCCCCCCCC(=O)OC(CCCCCCCCCCC)CC(=O)O[C@@H]1[C@@H](NC(=O)CC(CCCCCCCCCCC)OC(=O)CCCCCCCCCCC)[C@H](OC[C@H]2O[C@H](OP(=O)(O)O)[C@H](NC(=O)CC(O)CCCCCCCCCCC)[C@@H](OC(=O)CCCCCCCCCCCCC)[C@@H]2O)O[C@H](CO)[C@H]1OP(=O)(O)O (stereo partly drawn) [Comparative compound 506, 6-O-[2-deoxy-2-(3-dodecanoyloxytetradecanoylamino)-3-O-(3-tetra-decanoyloxytetradecanoyl)-4-O-phosphono-β-D-glucopyranosyl]-2-deoxy-2-(3-hydroxytetradecanoylamino)-3-O-tetradecanoyl-1-O-phosphono-α-D-glucopyranose, reference compound]
Galactosamine-loaded lethal toxicity, LD50 [1]: 0.0079 µg
Mitogen activity, Stimulation Index ([2]; 50 μg/ml): 6.28
Polyclonal B cell activation activity, Stimulation Index ([3]; 10 μg per 2.5×10^6 cells): 15.7
Polyclonal B cell activation activity, Stimulation Index ([3]; 100 μg per 2.5×10^6 cells): 20.7
Antiviral activity (reciprocal of the dilution ratio to the 1 mg/ml sample wherein L929 cells survived at a ratio of 50%) [4]: 2.2
Adjuvant activity, Stimulation Index [5]: 1.99
Pyrogenicity ([6]; dose of 0.01 μg): showed pyrogenicity

CCCCCCCCCCCCCCCC(=O)OC(CCCCCCCCCCCC(C)C)CC(=O)NC1C(OCC2OC(OP(=O)(O)O)C(NC(=O)CC(O)CCCCCCCCCCCC(C)C)C(O)C2O)OC(CO)C(O)C1O (stereo not drawn) [Invention compound]
suppression of the production of IL-1β induced by LPS originating in Escherichia coli ([7]; added simultaneously, 50 times as much as LPS): suppressed the production of IL-1β
suppression of the production of IL-1β induced by compound 506 ([7]; added simultaneously, 50 times as much as synthetic lipid A 506): suppressed the production of IL-1β
activity of inducing the production of IL-1β ([7]; human peripheral blood monocytes, 24 hours): little activity
activity of inducing the production of TNF-α [8]: little activity
Galactosamine-loaded lethal toxicity, LD50 [1]: > 10 µg
production of IL-1ra in the culture supernatant, compared with synthetic lipid A 506 [9]: in a larger amount than the synthetic lipid A 506 did
inhibition at 10 µg/mL ([10]; 24 h, 10 μg/ml, Meth A with mouse macrophages): 58.6%
inhibition at 100 µg/mL ([10]; 24 h, 100 μg/ml, Meth A with mouse macrophages): 64%
Cytostatic activity, comparison with synthetic lipid A 506 ([10]; in words): comparable to that of the synthetic lipid A 506
Local Shwartzman reaction, hemorrhage [11]: no hemorrhage
fold induction at 5 µg/mL [2, 14]: 4.17
fold induction at 50 µg/mL [2, 14]: 7.46
Polyclonal B cell activation activity, Stimulation Index ([3]; 10 μg per 2.5×10^6 cells): 22.0
Polyclonal B cell activation activity, Stimulation Index ([3]; 100 μg per 2.5×10^6 cells): 30.3
Antiviral activity (reciprocal of the dilution ratio to the 1 mg/ml sample wherein L929 cells survived at a ratio of 50%) ([4]; VSV 100 TCID50/0.1 ml on L929 cells, 24 hours): 4.9
Adjuvant activity, Stimulation Index [5]: 2.48
Pyrogenicity ([6]; dose of 10 μg/kg): showed no pyrogenicity
NK activity ([12]; 100 μg i.v. on days 0 and 7, spleen cells collected day 14, BALB/c mouse, YAC-1 targets, 4 hours): 50.1%
NK activity, comparison with synthetic lipid A 506 ([12]; 100 μg i.v. on days 0 and 7, in words): comparable to the synthetic lipid A 506
Limulus test, minimum effective dose relative to that of the synthetic lipid A 506 [13]: 1,000 times
